Marks after values point to notes of the source that are not given here.
Tests used:
[1] = system: HepG2 cells; test: In vitro mammalian chromosome aberration test on HepG2; assay type: cell-based, human
Procedure: HepG2 and VH10 cells were seeded into Petri dishes (Ø = 60 mm; HepG2 inoculum of 1 × 10^6 cells/dish and VH10 inoculum of 3.8 × 10^5 cells/dish) for 2 h. […] Three hours before the end of the cultivation, colchicine (0.75 µg/mL) was added. Before karyological processing, the cells were counted. Slides were prepared by the standard air-drying method and were stained with 2% aqueos Giemsa-Romanowski solution for 10 min.
(§1) Chromosome aberrations were evaluated by a microscopic examination. For each sample, 100 metaphases were analyzed. We focused on the following structural aberrations; breaks, chromatid, and iso-chromatid, and exchanges, including dicentrics, rings, tri-radials and quadri-radials. The results were evaluated statistically on the basis of the difference between two relative values. The percentage of aberrant metaphases and the total number of chromosome aberrations was compared to solvent control (SC), or clastogenic effect, and positive control (PC), or anticlastogenic effect. Since the genetic significance of gaps is not clearly understood, they were not included in the assessment of chromosomal damage and thus were not evaluated statistically.

[2] = system: VH10 cells; test: In vitro mammalian chromosome aberration test on VH10; assay type: cell-based, human; details: for Number of Aberrant Metaphases / Number of Chromosome Aberrations, Chromatid b/f / Number of Chromosome Aberrations, Chromatid g / Number of Chromosome Aberrations, Exchange qr / Number of Chromosome Aberrations, Exchange tr / Number of Chromosome Aberrations, Isochromatid b/f / Total Number of CA / Number of Chromosome Aberrations, Exchange dic: 100 metaphases
Procedure: HepG2 and VH10 cells were seeded into Petri dishes (Ø = 60 mm; HepG2 inoculum of 1 × 10^6 cells/dish and VH10 inoculum of 3.8 × 10^5 cells/dish) for 2 h. Then, HF non-clastogenic concentrations (0.75 or 1.5 µM) were added and the cultures were incubated for 24 h. These concentrations of HF were chosen based on preliminary experiments (range-finding tests). Afterwards the medium was replaced with fresh medium alone or with fresh medium containing mutagens B(a)P (1.7 μM for HepG2 cells) or cisPt (0.5 μM for HepG2 cells and 0.75 μM for VH10 cells), and the HepG2 cells were cultivated further for 42 h and VH10 cells for 36 h, which approximately corresponds to 1.3 cell cycles of HepG2 and VH10 cells. Three hours before the end of the cultivation, colchicine (0.75 µg/mL) was added. Before karyological processing, the cells were counted. Slides were prepared by the standard air-drying method and were stained with 2% aqueos Giemsa-Romanowski solution for 10 min.
as §1

[3] = system: HepG2 cells; details: read-out: IC50 (cell survival, MTT), 42 h treatment
Procedure: Thereafter, the medium was removed, and replaced by 200 µL of DMSO. The absorbance was measured at 540 and 690 nm using an xMarkTM Microplate Spectrophotometer (Bio-Rad Laboratories, Inc., Berkeley, CA, USA).

[4] = system: S. typhimurium TA100; details: HF 0.075–2 µg/plate + sodium azide 50 µg/plate; without S9
Procedure: (§2) The Ames assay was conducted according to the method modified by Maron and Ames. In the Ames test, three bacterial strains of S. typhimurium (TA97, TA98, and TA100) were used. These strains are deficient in histidine and biotin, and, at the same time, they are deficient in excision repair. Prior to each experiment, the quality of each bacterial strain was checked similarly, as described by Berg et al.. The assay was carried out in sterile test tubes containing 100 µL (approximately 1.10^8 cells/mL) of overnight bacterial culture (overnight cultivated in 50 mL of LB medium) and 2.5 mL of the top-agar (with traces of histidine and biotin). In the case of metabolic activation, S9 mix was used to activate a promutagen 2-aminofluorene (50 µg/plate, Serva, Heidelberg, Germany). […] As positive controls (PC), the following diagnostic/direct mutagens were used: 9-aminoacridine (50 µg/plate, Serva, Heidelberg, Germany) for TA97; 4-nitroquinoline-1-oxide (20 µg/plate, Serva, Heidelberg, Germany) for TA98; and sodium azide (50 µg/plate, Serva, Heidelberg, Germany) for TA100. […] After 48 h of cultivation at 37 °C, his^+ revertants were counted. All experiments were conducted in triplicate. The data obtained were then analyzed using Student’s t-test.

[5] = system: S. typhimurium TA98; details: all HF concentrations (0.075–2 µg/plate) + 4-NQO 20 µg/plate; without S9
Procedure: as §2

[6] = system: Salmonella typhimurium TA97; details: HF 0.075–2 µg/plate + 9-aminoacridine 50 µg/plate; without S9
Procedure: as §2

[7] = system: human lymphocytes; details: HF 0.02–1 µM pretreatment, then zeocin 4.5 µM
Procedure: In the alkaline comet assay human lymphocytes were used. They were isolated from peripheral blood obtained by the finger prick method. To 1 mL of ice cold 1× PBS, 40 μL of peripheral blood was added and allowed to stand on ice for 30 min. Lymphocytes were separated from whole blood samples by standard centrifugation with 100 μL of the Histopaque medium (Sigma-Aldrich). After the centrifugation, 200 μL of isolated cells were resuspended in 1 mL of 1× PBS buffer and re-centrifuged.
This assay was selected for detecting the potential antigenotoxic effect of HF towards zeocin on the human lymphocytes. […] Briefly, human lymphocytes were suspended in 1% low melting point agarose (LMP) in PBS and placed on slides pre-coated with 1% normal melting point agarose (NMP). Slides with embedded lymphocytes were incubated for 1 h in HF solution (0.02; 0.05; 0.2; 1 µM). […] Afterwards, the zeocin solution was rinsed off with PBS. […] For the negative control, cells were left untreated in PBS for 1 h. […] Finally, the slides were stained with 20 µg/mL of ethidium bromide (Sigma-Aldrich, Bratislava, Slovakia), and, in each sample, 100 random nucleoids were scored at magnification 400× using a fluorescence microscope Olympus BX 51. The DNA damage was evaluated using the Comet visual computer software. DNA damage was expressed as the percentage of DNA in the tail (% tail DNA) [55]. […]

[8] = cisPt 0.5 µM (positive control), 100 metaphases
[9] = cisPt 0.75 µM (positive control)
[10] = HF 0.75 µM pretreatment 24 h + cisPt 0.5 µM, 100 metaphases
[11] = HF 0.75 µM pretreatment + B(a)P 1.7 µM, 100 metaphases
[12] = HF 1.5 µM pretreatment 24 h + cisPt 0.5 µM, 100 metaphases
[13] = HF 1.5 µM pretreatment + B(a)P 1.7 µM, 100 metaphases
[14] = HF 0.75 µM pretreatment 24 h + cisPt 0.75 µM
[15] = HF 1.5 µM pretreatment 24 h + cisPt 0.75 µM

With `N.N.[Cl][Pt][Cl]` [cisPt, cisplatinum(II)diamine dichloride, reference compound] the “Number of Aberrant Metaphases” value [1, 8] was 38 ***, the “Number of Chromosome Aberrations, Chromatid b/f” value [1, 8] was 36 and the “Number of Chromosome Aberrations, Chromatid g” value (shortened to “Number … Chromatid g”) [1, 8] was 2. The “Number of Chromosome Aberrations, Exchange dic” value (from here on “Number … Exchange dic”) [1, 8] was 2, the “Number of Chromosome Aberrations, Exchange qr” value (from here on “Number … Exchange qr”) [1, 8] was 1 and the “Number of Chromosome Aberrations, Isochromatid b/f” value (shortened to “Number … Isochromatid b/f”) [1, 8] was 8. For the same compound, the “Total Number of CA” value [1, 8] was 47 ***, the “Number of Aberrant Metaphases” value [2, 9] was 33 *** and the “Number of Chromosome Aberrations, Chromatid b/f” value [2, 9] was 26. For the same compound, the “Number … Chromatid g” value [2, 9] was 2, the “Number … Exchange qr” value [2, 9] was 4 and the “Number of Chromosome Aberrations, Exchange tr” value (shortened to “Number … Exchange tr”) [2, 9] was 5. For the same compound, the “Number … Isochromatid b/f” value [2, 9] was 9 and the “Total Number of CA” value [2, 9] was 44 ***.

With Hyperforin [HF] the IC50 [3] was 19.9 µM, the antimutagenic effect [4] was “not observed” and the “number of his+ revertants vs positive control” value [5] was “significant decrease”. For the same compound, the “number of his+ revertants vs positive control” value [6] was “decrease”, the “Number of Aberrant Metaphases” value [1, 10] was 10 *^,### and the “Number of Chromosome Aberrations, Chromatid b/f” value [1, 10] was 5. For the same compound, the “Number … Chromatid g” value [1, 10] was 2, the “Number … Exchange dic” value [1, 10] was 2 and the “Number … Isochromatid b/f” value [1, 10] was 4. For the same compound, the “Total Number of CA” value [1, 10] was 11 *^,###, the “Number of Aberrant Metaphases” value [1, 11] was 8 ^### and the “Number of Chromosome Aberrations, Chromatid b/f” value [1, 11] was 7. For the same compound, the “Number … Chromatid g” value [1, 11] was 1, the “Number … Isochromatid b/f” value [1, 11] was 1 and the “Total Number of CA” value [1, 11] was 8 ^###. The “Number of Aberrant Metaphases” value [1, 12] was 14 **^,###, the “Number of Chromosome Aberrations, Chromatid b/f” value [1, 12] was 10 and the “Number … Chromatid g” value [1, 12] was 2. The “Number … Exchange dic” value [1, 12] was 1, the “Number … Isochromatid b/f” value [1, 12] was 3 and the “Total Number of CA” value [1, 12] was 14 **^,###. The “Number of Aberrant Metaphases” value [1, 13] was 8 ^###, the “Number of Chromosome Aberrations, Chromatid b/f” value [1, 13] was 8 and the “Number … Chromatid g” value [1, 13] was 1. The “Number … Exchange dic” value [1, 13] was 1, the “Total Number of CA” value [1, 13] was 9 ^### and the “amount of aberrant metaphases and chromosome aberrations” value ([1]; HF 0.75 and 1.5 µM pretreatment 24 h, then cisPt 0.5 µM) was “significant decrease”. For the same compound, the “Number of Aberrant Metaphases” value [2, 14] was 12 **^,###, the “Number of Chromosome Aberrations, Chromatid b/f” value [2, 14] was 8 and the “Number … Chromatid g” value [2, 14] was 1. The “Number … Exchange dic” value [2, 14] was 1, the “Number … Exchange qr” value [2, 14] was 1 and the “Number … Exchange tr” value [2, 14] was 1. The “Number … Isochromatid b/f” value [2, 14] was 3, the “Total Number of CA” value [2, 14] was 14 ***^,### and the “Number of Aberrant Metaphases” value [2, 15] was 11 **^,###. The “Number of Chromosome Aberrations, Chromatid b/f” value [2, 15] was 8, the “Number … Chromatid g” value [2, 15] was 3 and the “Number … Exchange dic” value [2, 15] was 1. For the same compound, the “Number … Exchange tr” value [2, 15] was 2, the “Total Number of CA” value [2, 15] was 11 **^,### and the “amount of aberrant metaphases and chromosome aberrations” value ([2]; HF pretreatment 24 h, then cisPt 0.75 µM) was “significant decrease”. The “percentage of damaged DNA vs positive control (zeocin)” value [7] was “significantly decreased the percentage of damaged DNA”.

— PMC6155625 (Molecules : A Journal of Synthetic Chemistry and Natural …, 2017)
